The source of these data is US12550885B2, “Red blood cell storage solutions, solution additives, and methods for improving the storage of red blood cells” (University of Cincinnati, priority 2016, dated 2026).

Assay [1] concerns human pRBCs. Briefly: Microparticle formation in stored human pRBCs (Nanoparticle Tracking Analysis). Conditions: human pRBCs stored at 4° C., increasing doses added prior to storage. The format is cell-based. The procedure:
(§1) Human pRBCs were obtained from Hoxworth Blood Bank (Cincinnati, OH) and stored at 4° C. for 42 days according to standard blood banking practice. Murine pRBCs were obtained as previously described. Briefly, donor mice were anesthetized with intraperitoneal pentobarbital (0.1 mg/g body weight) and blood was collected via cardiac puncture into CP2D anticoagulant-coated syringes. CP2D was then added to the whole blood in a 1:7 ratio and gently mixed. Whole blood was centrifuged at 1,000 g for 10 minutes at 4° C. and platelet-rich plasma was discarded. Storage solution (AS-3) was added to erythrocytes in a 2:9 ratio using the original whole blood volume. Units were stored at 4° C. for 14 days.
(§2) Erythrocytes were pelleted from pRBC samples at 2,000 g for 10 minutes at 4° C. The supernatant from this spin was then centrifuged at 10,000 g for 10 minutes at 4° C. to pellet any remaining cells or platelets. The MP-rich supernatant from this second spin was used to characterize MP production and hemolysis. MPs were pelleted using a 20,000 g spin for 30 minutes at 4° C.

Assay [2] concerns mouse pRBCs. Briefly: Microparticle formation in stored mouse pRBCs (Nanoparticle Tracking Analysis). The format is cell-based. As to conditions: mouse pRBCs stored at 4° C. for 14 days, inhibitor added prior to storage. As to the method: as §1, §2
Assay [3] has as its system human pRBCs. Nature of the assay: Hemolysis (cell-free hemoglobin) in stored human pRBCs. The assay is classed as cell-based. As to conditions: human pRBCs stored at 4° C., increasing AT concentration. As to the method: as §1
(§3) Erythrocytes were pelleted from pRBC samples at 2,000 g for 10 minutes at 4° C. The supernatant from this spin was then centrifuged at 10,000 g for 10 minutes at 4° C. to pellet any remaining cells or platelets. The MP-rich supernatant from this second spin was used to characterize MP production and hemolysis. […]
(§4) Hemoglobin in the MP-rich supernatant was quantified using a Coulter AcT diff Analyzer (Beckman Coulter Corp., Brea, CA). Cell size (forward scatter), complexity (side scatter), phosphatidylserine exposure (annexin V positivity), and band 3 protein integrity (eosin-5-maleimide^68) were analyzed using an Attune flow cytometer (Life Technologies, Carlsbad, CA). […]

Assay [4] deals with mouse pRBCs. Briefly: Hemolysis (cell-free hemoglobin) in stored mouse pRBCs. The format is cell-based. As to conditions: mouse pRBCs stored at 4° C. for 14 days, inhibitor added prior to storage. The procedure:
as §1, §3, §4

In assay [5] the test system is mouse erythrocytes. Briefly: Erythrocyte characterization by flow cytometry (size, complexity, phosphatidylserine exposure, band 3 integrity). The assay is classed as cell-based. The procedure: as §1
Hemoglobin in the MP-rich supernatant was quantified using a Coulter AcT diff Analyzer (Beckman Coulter Corp., Brea, CA). Cell size (forward scatter), complexity (side scatter), phosphatidylserine exposure (annexin V positivity), and band 3 protein integrity (eosin-5-maleimide^68) were analyzed using an Attune flow cytometer (Life Technologies, Carlsbad, CA). Antibodies for ter119, CD235a, CD41, CD45, and Annexin V were acquired from BD Biosciences (San Diego, CA), and eosin-5-maleimide was obtained from Life Technologies (Carlsbad, CA).

Assay [6] relates to C57BL/6 mice. Briefly: Lung inflammation after transfusion of aged pRBCs, histology (edema, Gr1 inflammatory cells, ZO1 tight junctions). The format is in vivo, mouse. As to conditions: 200 μl IV aged pRBCs treated with 125 μM AT, lungs taken 6 hours after transfusion. As to the method: Male C57BL/6 mice aged 8-10 weeks were purchased from Jackson Laboratories, fed standard laboratory diet and water ad libitum, and acclimated for 1 week in climate-controlled conditions with 12 hours light-dark cycles prior to use. Asm-deficient mice (Asm^−/−) on a C57BL/6 background were used and compared to syngenic C57Bl/6 wild type mice as controls. All experiments were approved by the Institutional Animal Care and Use Committee at the University of Cincinnati. To study the effect of AT treatment on lung inflammation following blood transfusion, mice received 200 μl IV injections of pRBCs or MPs. Lungs were taken 6 hours after transfusion for either histologic or Evans blue evaluation. Histologic lung sections were examined for evidence of lung edema with hematoxylin and inflammatory cells with anti-Gr1 antibodies (AbD Serotec, Raleigh, NC). Tight junction integrity was assessed by staining lung slides with Cy3-conjugated anti-ZO1 (Jackson ImmunoResearch, West Grove, PA). Endothelial cell permeability was assessed using the Evans blue method (source). In brief, mice were weighed and injected with 30 mg/kg Evans blue. After 10 minute of circulation time, mice were sacrificed and the pulmonary vasculature was flushed with 10 ml PBS. Lungs were dried at 55° C. for 24 hours and then incubated in 500 μl formamide for 48 hours at 55° C. Evans blue extraction calculated by measuring the optical density at 620 nm and comparing to a standard curve, and values were normalized to dry lung weight.

`CN(C)CCC=C1c2ccccc2CCc2ccccc21` [AT, Amitriptyline]: the MP formation entry in assay [1] is on record as “dose-dependent reduction of MP formation”. Also, in assay [2], the MP formation entry is “dose-dependent reduction of MP formation”. For the same molecule, the “hemolysis (cell-free hemoglobin)” value in assay [3] is “dose-dependent reduction in hemolysis”. Moreover, the “hemolysis (cell-free hemoglobin)” value in assay [4] is listed as “dose-dependent reduction in hemolysis”. Further, in assay [5] (aged mouse erythrocytes), the “age-related phosphatidylserine expression (annexin V positivity)” value is “reduced this age-related phosphatidylserine expression in a dose dependent manner”. Moreover, the “age-related decrease in cell complexity (side scatter)” value in assay [5] (stored mouse erythrocytes) is recorded as “mitigated”. The “reduction of band 3 degradation (eosin-5-maleimide)” value in assay [5] (stored mouse erythrocytes, 125 μM AT) is reported as around 50%. In addition, the “age-related decrease in cell size (forward scatter)” value in assay [5] (stored mouse pRBCs) is on record as “mitigated”. In assay [6], the “disruption of tight junctions in the lung (ZO1)” value is recorded as “mitigated”, the “inflammatory cell recruitment to the lungs” value is “greatly reduced” and the lung edema entry is listed as “greatly reduced”.

Consider `CNCCC(Oc1ccc(C(F)(F)F)cc1)c1ccccc1` (stereo not drawn) [Fluoxetine], for which, in assay [4], the “hemolysis (cell-free hemoglobin)” value was “reduced hemolysis”.
